Values quoted from earlier work as cited in patent US20050233013A1, “Methods for enhancing the transport of glucose for balancing blood sugar levels” (priority 2004, published 2005).

Tested on: pancreatic beta cell
Settings: micromolar concentrations; glucose dependent; Sauvaire et al, Diabetes 47:206 (1998)

## C[C@@H]([C@H](C)O)[C@H](N)C(=O)O [major isomer (2S, 3R, 4S), (2S, 3R, 4S)-4-hydroxyisoleucine]
  glucose-induced insulin secretion: stimulate glucose-induced insulin secretion
